We go through 1 compound from ChEMBL document CHEMBL5226293, “Biologically Significant and Recently Isolated Alkaloids from Endophytic Fungi” (2021).

Each structure is given as a SMILES string. Converted amounts (≈) assume the structure as drawn.

For test [1], the system named is Mycolicibacterium smegmatis. Description: Antimycobacterial activity against Mycobacterium smegmatis assessed as growth inhibition incubated for 7 days by microplate alamar blue bioassay. The following applies: 168 h, time 7 day. The class given is functional. In general terms: Resazurin is reduced to fluorescent resorufin, in cell work by metabolically active cells.

Test [2] deals with Mycobacterium tuberculosis. Description: Antimycobacterial activity against Mycobacterium tuberculosis assessed as growth inhibition incubated for 7 days by microplate alamar blue bioassay. To be noted: 168 h, time 7 day. The class given is functional.

As a reminder, the MIC is the smallest concentration in the dilution series that meets the test's criterion for growth inhibition. Turning to `O=C(/C=C/C=C/c1ccc2c(c1)OCO2)N1CCCCC1` [PIPERINE], the MIC in test [1] turned out to be 1.74 µg/mL (≈ 6.1 µM); in test [2], 2.62 µg/mL (≈ 9.18 µM).
